Test results reported in PubChem BioAssay (NCI).
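Test compounds were applied to cells in 96-well plates for 48 hours at 5 doses. The concentration for 50% growth inhibition is given as GI50. TGI marks complete inhibition of growth.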

Legend:
Test in all cases: NCI tumour cell line growth inhibition, 48 h
786-0 renal = tested on: 786-0 renal
A498 renal = tested on: A498 renal
A549 NSCLC = tested on: A549 NSCLC
ACHN renal = tested on: ACHN renal
BT-549 breast = tested on: BT-549 breast
CAKI-1 renal = tested on: CAKI-1 renal
CCRF-CEM leukemia = tested on: CCRF-CEM leukemia
COLO 205 colon = tested on: COLO 205 colon
DU-145 prostate = tested on: DU-145 prostate
HCC-2998 colon = tested on: HCC-2998 colon
HCT-116 colon = tested on: HCT-116 colon
HCT-15 colon = tested on: HCT-15 colon
HL-60(TB) leukemia = tested on: HL-60(TB) leukemia
HOP-62 NSCLC = tested on: HOP-62 NSCLC
HOP-92 NSCLC = tested on: HOP-92 NSCLC
HS 578T breast = tested on: HS 578T breast
HT29 colon = tested on: HT29 colon
IGROV1 ovarian = tested on: IGROV1 ovarian
K-562 leukemia = tested on: K-562 leukemia
KM12 colon = tested on: KM12 colon
LOX IMVI melanoma = tested on: LOX IMVI melanoma
M14 melanoma = tested on: M14 melanoma
MALME-3M melanoma = tested on: MALME-3M melanoma
MCF7 breast = tested on: MCF7 breast
MDA-MB-231 breast = tested on: MDA-MB-231 breast
MDA-MB-435 = tested on: MDA-MB-435
MOLT-4 leukemia = tested on: MOLT-4 leukemia
NCI-H226 lung = tested on: NCI-H226 lung
NCI-H23 lung = tested on: NCI-H23 lung
NCI-H460 lung = tested on: NCI-H460 lung
NCI-H522 lung = tested on: NCI-H522 lung
NCI/ADR-RES ovarian = tested on: NCI/ADR-RES ovarian
OVCAR-3 ovarian = tested on: OVCAR-3 ovarian
OVCAR-4 ovarian = tested on: OVCAR-4 ovarian
OVCAR-5 ovarian = tested on: OVCAR-5 ovarian
OVCAR-8 ovarian = tested on: OVCAR-8 ovarian
PC-3 prostate = tested on: PC-3 prostate
RPMI-8226 leukemia = tested on: RPMI-8226 leukemia
RXF 393 renal = tested on: RXF 393 renal
SF-268 CNS = tested on: SF-268 CNS
SF-295 CNS = tested on: SF-295 CNS
SF-539 CNS = tested on: SF-539 CNS
SK-MEL-2 melanoma = tested on: SK-MEL-2 melanoma
SK-MEL-28 melanoma = tested on: SK-MEL-28 melanoma
SK-MEL-5 melanoma = tested on: SK-MEL-5 melanoma
SK-OV-3 ovarian = tested on: SK-OV-3 ovarian
SN12C renal = tested on: SN12C renal
SNB-19 CNS = tested on: SNB-19 CNS
SNB-75 CNS = tested on: SNB-75 CNS
SR leukemia = tested on: SR leukemia
SW-620 colon = tested on: SW-620 colon
T-47D breast = tested on: T-47D breast
TK-10 renal = tested on: TK-10 renal
U251 CNS = tested on: U251 CNS
UACC-257 melanoma = tested on: UACC-257 melanoma
UACC-62 melanoma = tested on: UACC-62 melanoma
UO-31 renal = tested on: UO-31 renal

`O=C(Nc1cccc(-n2cc(-c3ccncc3)c(-c3ccc(Cl)c(O)c3)n2)c1)Nc1ccc(Cl)c(C(F)(F)F)c1` gave a GI50 (786-0 renal) of 1020 nM, a TGI (786-0 renal) of 8250 nM and a GI50 (A498 renal) of 1240 nM. For the same compound, the TGI (A498 renal) was 7930 nM, the GI50 (A549 NSCLC) was 914 nM and the TGI (A549 NSCLC) was 4070 nM. It also gave a GI50 (ACHN renal) of 890 nM, a TGI (ACHN renal) of 32500 nM and a GI50 (BT-549 breast) of 1160 nM. For the same compound, the TGI (BT-549 breast) was 5360 nM, the GI50 (CAKI-1 renal) was 726 nM and the TGI (CAKI-1 renal) was 2300 nM. It also gave a GI50 (CCRF-CEM leukemia) of 719 nM, a TGI (CCRF-CEM leukemia) of 2700 nM and a GI50 (COLO 205 colon) of 2230 nM. For the same compound, the TGI (COLO 205 colon) was 6730 nM, the GI50 (DU-145 prostate) was 1160 nM and the TGI (DU-145 prostate) was 4510 nM. It also gave a GI50 (HCC-2998 colon) of 1390 nM, a TGI (HCC-2998 colon) of 6230 nM and a GI50 (HCT-116 colon) of 938 nM. The TGI (HCT-116 colon) was 3630 nM, the GI50 (HCT-15 colon) was 949 nM and the TGI (HCT-15 colon) was 10300 nM. It also gave a GI50 (HL-60(TB) leukemia) of 1230 nM, a TGI (HL-60(TB) leukemia) of 8990 nM and a GI50 (HOP-62 NSCLC) of 1040 nM. It also gave a TGI (HOP-62 NSCLC) of 4750 nM, a GI50 (HOP-92 NSCLC) of 310 nM and a TGI (HOP-92 NSCLC) of 1290 nM. For the same compound, the GI50 (HS 578T breast) was 1050 nM, the TGI (HS 578T breast) was 15700 nM and the GI50 (HT29 colon) was 2050 nM. The TGI (HT29 colon) was 7110 nM, the GI50 (IGROV1 ovarian) was 770 nM and the TGI (IGROV1 ovarian) was 2430 nM. For the same compound, the GI50 (K-562 leukemia) was 768 nM, the TGI (K-562 leukemia) was 9360 nM and the GI50 (KM12 colon) was 910 nM. It also gave a TGI (KM12 colon) of 3430 nM, a GI50 (LOX IMVI melanoma) of 554 nM and a TGI (LOX IMVI melanoma) of 1150 nM. The GI50 (M14 melanoma) was 805 nM, the TGI (M14 melanoma) was 2300 nM and the GI50 (MALME-3M melanoma) was 557 nM. The TGI (MALME-3M melanoma) was 1580 nM, the GI50 (MCF7 breast) was 663 nM and the TGI (MCF7 breast) was 32500 nM. It also gave a GI50 (MDA-MB-231 breast) of 538 nM, a TGI (MDA-MB-231 breast) of 1480 nM and a GI50 (MDA-MB-435) of 640 nM. It also gave a TGI (MDA-MB-435) of 1660 nM, a GI50 (MOLT-4 leukemia) of 777 nM and a TGI (MOLT-4 leukemia) of 2930 nM. The GI50 (NCI-H226 lung) was 1330 nM, the TGI (NCI-H226 lung) was 14600 nM and the GI50 (NCI-H23 lung) was 1040 nM. For the same compound, the TGI (NCI-H23 lung) was 4000 nM, the GI50 (NCI-H460 lung) was 963 nM and the TGI (NCI-H460 lung) was 3690 nM. It also gave a GI50 (NCI-H522 lung) of 643 nM, a TGI (NCI-H522 lung) of 2190 nM and a GI50 (NCI/ADR-RES ovarian) of 1010 nM. It also gave a TGI (NCI/ADR-RES ovarian) of 9460 nM, a GI50 (OVCAR-3 ovarian) of 658 nM and a TGI (OVCAR-3 ovarian) of 1950 nM. The GI50 (OVCAR-4 ovarian) was 1120 nM, the TGI (OVCAR-4 ovarian) was 27200 nM and the GI50 (OVCAR-5 ovarian) was 1710 nM. For the same compound, the TGI (OVCAR-5 ovarian) was 12300 nM, the GI50 (OVCAR-8 ovarian) was 759 nM and the TGI (OVCAR-8 ovarian) was 2280 nM. For the same compound, the GI50 (PC-3 prostate) was 533 nM, the TGI (PC-3 prostate) was 2110 nM and the GI50 (RPMI-8226 leukemia) was 487 nM. For the same compound, the TGI (RPMI-8226 leukemia) was 1670 nM, the GI50 (RXF 393 renal) was 557 nM and the TGI (RXF 393 renal) was 1670 nM. For the same compound, the GI50 (SF-268 CNS) was 1110 nM, the TGI (SF-268 CNS) was 6650 nM and the GI50 (SF-295 CNS) was 656 nM. The TGI (SF-295 CNS) was 1710 nM, the GI50 (SF-539 CNS) was 730 nM and the TGI (SF-539 CNS) was 2200 nM. For the same compound, the GI50 (SK-MEL-2 melanoma) was 784 nM, the TGI (SK-MEL-2 melanoma) was 1680 nM and the GI50 (SK-MEL-28 melanoma) was 928 nM. The TGI (SK-MEL-28 melanoma) was 3210 nM, the GI50 (SK-MEL-5 melanoma) was 528 nM and the TGI (SK-MEL-5 melanoma) was 1040 nM. For the same compound, the GI50 (SK-OV-3 ovarian) was 1270 nM, the TGI (SK-OV-3 ovarian) was 9730 nM and the GI50 (SN12C renal) was 1050 nM. It also gave a TGI (SN12C renal) of 10300 nM, a GI50 (SNB-19 CNS) of 1170 nM and a TGI (SNB-19 CNS) of 5310 nM. It also gave a GI50 (SNB-75 CNS) of 514 nM, a TGI (SNB-75 CNS) of 5050 nM and a GI50 (SR leukemia) of 663 nM. The TGI (SR leukemia) was 2050 nM, the GI50 (SW-620 colon) was 1070 nM and the TGI (SW-620 colon) was 3770 nM. For the same compound, the GI50 (T-47D breast) was 911 nM, the TGI (T-47D breast) was 9010 nM and the GI50 (TK-10 renal) was 1330 nM. It also gave a TGI (TK-10 renal) of 7520 nM, a GI50 (U251 CNS) of 542 nM and a TGI (U251 CNS) of 1270 nM. It also gave a GI50 (UACC-257 melanoma) of 705 nM, a TGI (UACC-257 melanoma) of 1880 nM and a GI50 (UACC-62 melanoma) of 609 nM. The TGI (UACC-62 melanoma) was 1470 nM, the GI50 (UO-31 renal) was 738 nM and the TGI (UO-31 renal) was 2590 nM.
